Settings: for immediate release / immediate release (amount): Example 5 monolithic tablet (900 mg acetaminophen + 100 mg caffeine), after 30 minutes in SGF
Procedure: The dissolution kinetic assay is followed with a Distek™ apparatus according to the paddle method from USP-32, with slight modification. Indeed, the monolithic tablets are placed in 750 mL of simulated gastric fluid (SGF, pH 1.5) during 30 minutes, at 37° C. Thereafter, a volume of 250 mL of sodium tripolyphosphate 0.20 M is added directly in SGF to neutralize the gastric acidity for pH values of about 6.8-7.0 which constituted the pH of simulated intestinal fluid (SIF).
At different intervals of 30 minutes, an aliquot of 1 mL of dissolution fluid is withdrawn from dissolution media, filtered and properly diluted (approximately 1/50). The absorbency is measured with an UV spectrometer (Lambda-40 Spectrometer, Perkin Elmer) at 247 nm.
The Carboxymethyl starch is prepared according to the process of the present invention. […] For acetaminophen, the absorbency of samples is measured with an UV spectrometer at 247 nm. For caffeine, the dosage is carried out by HPLC according to method described by Hassouna et al. (Hassouna, M. E. M, Issa, Y. M. and Zayed, A. G. 2012. J. Appl. Pharm. Sci., 02, 52-59)

| SMILES | immediate release of Acetaminophen (amount) (Example 4 monolithic tablet (1000 mg acetaminophen), after 45 minutes (30 minutes in SGF and 15 minutes in SIF)) [mg] | immediate release of Acetaminophen (Example 4 monolithic tablet (1000 mg acetaminophen, carboxymethyl starch excipient), after 45 minutes (30 minutes in SGF pH 1.5 and 15 minutes in SIF), 37° C., FIG. 2) [%] | immediate release [%] | immediate release (amount) [mg] |
| --- | --- | --- | --- | --- |
| CC(=O)Nc1ccc(O)cc1 [Acetaminophen] | ~600 | ~60 | ~35 | ~350 |
| Cn1c(=O)c2c(ncn2C)n(C)c1=O [caffeine, Caffeine] |  |  | ~25 | ~25 |

From US11793879B2, “Monolithic composition for dual-rate release with high drug loading” (priority 2016, dated 2023)
